Assay results published in ChEMBL document CHEMBL5500423, “More than an Amide Bioisostere: Discovery of 1,2,4-Triazole-containing Pyrazolo[1,5-a]pyrimidine Host CSNK2 Inhibitors for Combatting β-Coronavirus Replication” (J Med Chem, 2024).

Key:
[1] = biological target: Casein kinase II subunit alpha' (Homo sapiens, UniProt P19784); assay: Inhibition of NLuc-fused CSNK2A2 (unknown origin) expressed in HEK293 cells incubated for 2 hrs by NanoBRET assay; format: cell-based
Murine hepatitis virus = assay: Antiviral activity against Murine hepatitis virus infected in mouse DBT cells preincubated with cells for 1 hrs followed by viral infection and measured after 10 hrs by luminometer; format: functional, organism-based; conditions: Murine coronavirus
[2] = Kinetic solubility of compound in PBS at pH 7.4 incubated for 24 hrs by HPLC analysis; format: physicochemical; conditions: buffer, pH 7.4, 24 h
[3] = Cytotoxicity against human A549-ACE2 cells assessed as cell viability at 1 uM incubated for 48 hrs by CellTiter-Glo2 assay relative to control; format: toxicity, cell-based; conditions: a549-ace2, 48 h
[4] = Cytotoxicity against human A549-ACE2 cells assessed as cell viability at 0.1 uM incubated for 48 hrs by CellTiter-Glo2 assay relative to control; format: toxicity, cell-based; conditions: a549-ace2, 48 h

Chain of Casein kinase II subunit alpha' (P19784 whole entry, the tested form may be a part): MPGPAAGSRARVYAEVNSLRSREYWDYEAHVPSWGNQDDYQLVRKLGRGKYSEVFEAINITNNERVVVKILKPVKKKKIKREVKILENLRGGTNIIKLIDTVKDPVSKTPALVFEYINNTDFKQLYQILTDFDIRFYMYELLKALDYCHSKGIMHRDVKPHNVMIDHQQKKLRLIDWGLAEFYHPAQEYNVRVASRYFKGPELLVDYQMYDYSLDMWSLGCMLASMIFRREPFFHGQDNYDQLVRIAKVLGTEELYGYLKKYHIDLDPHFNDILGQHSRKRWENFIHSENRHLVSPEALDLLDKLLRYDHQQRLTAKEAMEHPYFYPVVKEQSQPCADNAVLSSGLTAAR

## N#Cc1cnn2c(NC3CC3)cc(Nc3ccc(F)c(-n4cnnc4)c3)nc12
[1]
  IC50: 5.01 nM
Murine hepatitis virus
  IC50: 316 nM
[2]
  Kinetic_solubility: 0.3 µg/mL
[3]
  Activity: 99%
[4]
  Activity: 99%

## N#Cc1cnn2c(NC3CC3)cc(Nc3cccc(-n4cnnn4)c3)nc12
[1]
  IC50: 5.01 nM
Murine hepatitis virus
  IC50: > 10000 nM

## CC(C)(O)Cc1cccc(Nc2cc(NC3CC3)n3ncc(C#N)c3n2)c1
[1]
  IC50: 398 nM
Murine hepatitis virus
  IC50: 7940 nM

## CN1CCN(c2ccc(Nc3cc(NC4CC4)n4ncc(C#N)c4n3)cc2-n2cnnc2)CC1
[1]
  IC50: 158 nM
Murine hepatitis virus
  IC50: 5010 nM
[2]
  Kinetic_solubility: 0.2 µg/mL

## C[C@H](N)CN(C)c1ccc(Nc2cc(NC3CC3)n3ncc(C#N)c3n2)cc1-n1cnnc1
[1]
  IC50: 316 nM
Murine hepatitis virus
  IC50: 200 nM
[2]
  Kinetic_solubility: 50 µg/mL
[3]
  Activity: 76%
[4]
  Activity: 93%

## N#Cc1cnn2c(NC3CC3)cc(Nc3cc(-n4cnnc4)ccc3F)nc12
[1]
  IC50: 3.16 nM
Murine hepatitis virus
  IC50: 6.31 nM
[2]
  Kinetic_solubility: 1.5 µg/mL
[3]
  Activity: 59%
[4]
  Activity: 86%

## Cn1cnnc1-c1cccc(Nc2cc(NC3CC3)n3ncc(C#N)c3n2)c1
[1]
  IC50: > 10000 nM
Murine hepatitis virus
  IC50: > 10000 nM

## N#Cc1cnn2c(NCC3CCOC3)cc(Nc3cccc(-n4cnnc4)c3)nc12 (stereo unspecified)
[1]
  IC50: > 10000 nM
Murine hepatitis virus
  IC50: 5010 nM

## N#Cc1cnn2c(NC3CC3)cc(Nc3cccc(-n4cnnc4)c3)nc12
[1]
  IC50: 3.98 nM
Murine hepatitis virus
  IC50: 39.8 nM
[2]
  Kinetic_solubility: 0.47 µg/mL
[3]
  Activity: 85%
[4]
  Activity: 100%

## CS(=O)(=O)Nc1cccc(Nc2cc(NC3CC3)n3ncc(C#N)c3n2)c1
[1]
  IC50: 126 nM
Murine hepatitis virus
  IC50: 794 nM

## N#Cc1cnn2c(NC3CC3)cc(Nc3cccc(Cn4cnnc4)c3)nc12
[1]
  IC50: 3980 nM
Murine hepatitis virus
  IC50: > 10000 nM

## N#Cc1cnn2c(NC3CC3)cc(Nc3cccc(-n4ncnn4)c3)nc12
[1]
  IC50: 200 nM
Murine hepatitis virus
  IC50: > 10000 nM

## N#Cc1cnn2c(NC3CC3)cc(Nc3ccnc(-n4cnnc4)c3)nc12
[1]
  IC50: 10 nM
Murine hepatitis virus
  IC50: 63.1 nM
[2]
  Kinetic_solubility: 0.27 µg/mL
[3]
  Activity: 98%
[4]
  Activity: 99%

## N#Cc1cnn2c(NC3CC3)cc(Nc3cc(-n4cnnc4)c(N4CC[C@H](N)C4)cc3F)nc12
[1]
  IC50: 251 nM
Murine hepatitis virus
  IC50: 2000 nM
[2]
  Kinetic_solubility: 37 µg/mL

## N#Cc1cnn2c(Nc3ccn(CCN4CCCC4)n3)cc(Nc3cccc(-n4cnnc4)c3)nc12
[1]
  IC50: 25.1 nM
Murine hepatitis virus
  IC50: 1580 nM
[2]
  Kinetic_solubility: 35 µg/mL

## CN[C@H]1CCCN(c2ccc(Nc3cc(NC4CC4)n4ncc(C#N)c4n3)cc2-n2cnnc2)C1
[1]
  IC50: 126 nM
Murine hepatitis virus
  IC50: 2000 nM
[2]
  Kinetic_solubility: 56 µg/mL

## CN(C)CCn1ccc(Nc2cc(Nc3cccc(-n4cnnc4)c3)nc3c(C#N)cnn23)n1
[1]
  IC50: 31.6 nM
Murine hepatitis virus
  IC50: 5010 nM
[2]
  Kinetic_solubility: 21 µg/mL

## CN(CCO)c1cc(F)c(Nc2cc(NC3CC3)n3ncc(C#N)c3n2)cc1-n1cnnc1
[1]
  IC50: 63.1 nM
Murine hepatitis virus
  IC50: 2510 nM
[2]
  Kinetic_solubility: 2.6 µg/mL

## N#Cc1cnn2c(NC3CC3)cc(Nc3cccc(-c4ccccn4)c3)nc12
[1]
  IC50: 5010 nM
Murine hepatitis virus
  IC50: > 10000 nM

## N#Cc1cnn2c(NC3CC3)cc(Nc3cccc(-n4cc[nH]c4=O)c3)nc12
[1]
  IC50: > 10000 nM
Murine hepatitis virus
  IC50: > 10000 nM

## CC(C)(C#N)c1cccc(Nc2cc(NC3CC3)n3ncc(C#N)c3n2)c1
[1]
  IC50: 794 nM
Murine hepatitis virus
  IC50: > 10000 nM

## N#Cc1cnn2c(NC3CC(F)(F)C3)cc(Nc3cccc(-n4cnnc4)c3)nc12
[1]
  IC50: 398 nM
Murine hepatitis virus
  IC50: > 10000 nM

## N#Cc1cnn2c(NC3CC3)cc(Nc3ccc(N4CC[C@@H](N)C4)c(-n4cnnc4)c3)nc12
[1]
  IC50: 251 nM
Murine hepatitis virus
  IC50: 2510 nM
[2]
  Kinetic_solubility: 44 µg/mL

## N#Cc1cnn2c(Nc3cn(CCN4CCCC4)cn3)cc(Nc3cccc(-n4cnnc4)c3)nc12
[1]
  IC50: 200 nM
Murine hepatitis virus
  IC50: > 10000 nM
[2]
  Kinetic_solubility: 37 µg/mL

## N#Cc1cnn2c(NC3CCC3)cc(Nc3cccc(-n4cnnc4)c3)nc12
[1]
  IC50: 7.94 nM
Murine hepatitis virus
  IC50: 79.4 nM
[2]
  Kinetic_solubility: 0.18 µg/mL
[3]
  Activity: 93%

## CN[C@@H]1CCCN(c2cc(F)c(Nc3cc(NC4CC4)n4ncc(C#N)c4n3)cc2-n2cnnc2)C1
[1]
  IC50: 158 nM
Murine hepatitis virus
  IC50: 1580 nM

## CS(=O)(=O)Cc1cccc(Nc2cc(NC3CC3)n3ncc(C#N)c3n2)c1
[1]
  IC50: 50.1 nM
Murine hepatitis virus
  IC50: 158 nM

## N#Cc1cnn2c(NC3CC3)cc(Nc3cccc(-c4cnn[nH]4)c3)nc12
[1]
  IC50: 10 nM
Murine hepatitis virus
  IC50: 79.4 nM
[3]
  Activity: 85%
[4]
  Activity: 100%

## CCN(CCN)c1cc(F)c(Nc2cc(NC3CC3)n3ncc(C#N)c3n2)cc1-n1cnnc1
[1]
  IC50: 501 nM
Murine hepatitis virus
  IC50: 1580 nM
[2]
  Kinetic_solubility: 39 µg/mL

## CC(=O)N1CCC(Nc2cc(Nc3cccc(-n4cnnc4)c3)nc3c(C#N)cnn23)CC1
[1]
  IC50: > 10000 nM
Murine hepatitis virus
  IC50: > 10000 nM

## N#Cc1cnn2c(NC3CC3)cc(Nc3ccc(N4CCC[C@H](N)C4)c(-n4cnnc4)c3)nc12
[1]
  IC50: 126 nM
Murine hepatitis virus
  IC50: 631 nM
[2]
  Kinetic_solubility: 47 µg/mL

## C[C@@H](N)CN(C)c1ccc(Nc2cc(NC3CC3)n3ncc(C#N)c3n2)cc1-n1cnnc1
[1]
  IC50: 251 nM
Murine hepatitis virus
  IC50: 501 nM
[2]
  Kinetic_solubility: 62 µg/mL
[3]
  Activity: 91%
[4]
  Activity: 95%
